Data set [1] relates to Trichomonas vaginalis G3 trophozoites. Particulars: HTS single concentration, parasite screen 1 µg/mL; for T.vaginalis_%inb_Rep1: replicate 1; for T.vaginalis_%inb_Rep2: replicate 2.
Data set [2] concerns nontumorigenic neonatal foreskin fibroblast (NFF) cell line. Particulars: NFF_NS1 screen 5 µg/mL, single concentration.

Molecules are shown by their SMILES. Non-standard residues stand in square brackets, D forms with d. Residues, ends and D or L forms follow the SMILES beside them. Phe(ol) = N[C@H](CO)Cc1ccccc1; Aib = CC(C)(N)C(=O)O

Here are results for 22 compounds from article PMC7897990, “TriTOX: A novel Trichomonas vaginalis assay platform for high-throughput screening of compound libraries” (International Journal for Parasitology: Drugs and Drug …, 2021).

In data set [1], `CC(=O)NC(C)(C)C(=O)N1CCC[C@H]1C(=O)NC(C)(C)C(=O)N[C@@H](C)C(=O)NC(C)(C)C(=O)N[C@@H](C)C(=O)N[C@@H](CCC(N)=O)C(=O)NC(C)(C)C(=O)N[C@H](C(=O)NC(C)(C)C(=O)NCC(=O)N[C@@H](CC(C)C)C(=O)NC(C)(C)C(=O)N1CCC[C@H]1C(=O)N[C@H](C(=O)NC(C)(C)C(=O)NC(C)(C)C(=O)N[C@@H](CCC(N)=O)C(=O)N[C@@H](CCC(N)=O)C(=O)N[C@H](CO)Cc1ccccc1)C(C)C)C(C)C` [BIA-A1543] (Ac-[Aib]P[Aib]A[Aib]AQ[Aib]V[Aib]GL[Aib]PV[Aib][Aib]QQ[Phe(ol)]) registered a T.vaginalis_%inb_Rep1 of 13.73% and a T.vaginalis_%inb_Rep2 of 13.74%. In addition, the NFF_Activity entry in data set [2] is “I (otherwise these were reported as inactive (I))”.

In data set [1], `Cc1c2c(c(O)c3c(O)ccc(Cl)c13)C(=O)[C@]1(O)C(O)=C(C(N)=O)C(=O)[C@@H](N(C)C)[C@@H]1C2.Cl` [BIA-A1552] showed a T.vaginalis_%inb_Rep1 of 13.30% and a T.vaginalis_%inb_Rep2 of 11.71%. Besides, the NFF_Activity result in data set [2] is “I (otherwise these were reported as inactive (I))”.

In data set [1], `CC[C@H](C)[C@H]1O[C@]2(C=C[C@@H]1C)C[C@@H]1C[C@@H](C/C=C(\C)[C@@H](O[C@H]3C[C@H](OC)[C@@H](O[C@H]4C[C@H](OC)[C@@H](O)[C@H](C)O4)[C@H](C)O3)[C@@H](C)/C=C/C=C3\CO[C@@H]4[C@H](O)C(C)C=C(C(=O)O1)[C@]34O)O2` (stereo partly drawn) [BIA-A1579] gave a T.vaginalis_%inb_Rep1 of 15.89% and a T.vaginalis_%inb_Rep2 of 15.40%. For the same compound, in data set [2], the NFF_Activity result is “I (otherwise these were reported as inactive (I))”.

For the compound `CC[C@H](C)[C@H]1O[C@]2(C=C[C@@H]1C)C[C@@H]1C[C@@H](C/C=C(\C)[C@@H](O[C@H]3C[C@H](OC)[C@@H](O)[C@H](C)O3)[C@@H](C)/C=C/C=C3\CO[C@@H]4[C@H](O)C(C)=C[C@@H](C(=O)O1)[C@]34O)O2` [BIA-A1585], in data set [1], the T.vaginalis_%inb_Rep1 is given as 14.27% and the T.vaginalis_%inb_Rep2 was found to be 12.58%. The NFF_Activity result in data set [2] is “I (otherwise these were reported as inactive (I))”.

With `CC[C@H](C)[C@H]1O[C@]2(C=C[C@@H]1C)C[C@@H]1C[C@@H](C/C=C(\C)[C@@H](O)[C@@H](C)/C=C/C=C3\CO[C@@H]4[C@H](O)C(C)=C[C@@H](C(=O)O1)[C@]34O)O2` [BIA-A1587], in data set [1], the T.vaginalis_%inb_Rep1 amounted to 13.62% and the T.vaginalis_%inb_Rep2 turned out to be 16.27%. For the same compound, the NFF_Activity result in data set [2] is “I (otherwise these were reported as inactive (I))”.

In data set [1], `COc1c(OC)c(-c2c[nH]c3ccccc23)c(OC)c(OC)c1-c1c[nH]c2ccccc12` [BIA-A1630] registered a T.vaginalis_%inb_Rep1 of 13.41% and a T.vaginalis_%inb_Rep2 of 14.03%. The NFF_Activity result in data set [2] is “I (otherwise these were reported as inactive (I))”.

Regarding `C=CC(C)(C)C12CC3C(=O)N4C(CC5(C(C)(C)C=C)c6ccccc6NC45)C(=O)N3C1Nc1ccccc12` (stereo not drawn) [BIA-A1631], in data set [1], the T.vaginalis_%inb_Rep1 is reported as 14.16% and the T.vaginalis_%inb_Rep2 is reported as 13.96%. Further, the NFF_Activity result in data set [2] was “I (otherwise these were reported as inactive (I))”.

In data set [1], `O=C(N[C@H](COC(=O)[C@H](Cc1ccccc1)NC(=O)c1ccccc1)Cc1ccccc1)c1ccccc1` [BIA-A1643] displayed a T.vaginalis_%inb_Rep1 of 13.09% and a T.vaginalis_%inb_Rep2 of 15.04%. Further, the NFF_Activity entry in data set [2] is “I (otherwise these were reported as inactive (I))”.

In data set [1], `COC1=C(OC)C(=O)C(C)=C(C)C1=O` [BIA-A1654] returned a T.vaginalis_%inb_Rep1 of 13.09% and a T.vaginalis_%inb_Rep2 of 16.34%. The NFF_Activity entry in data set [2] was “A (active (A) compounds having >25% inhibitory activity)”.

In the case of `C=CC(C)(C)C12CC3C(=O)Nc4ccccc4C(=O)N3C1Nc1ccccc12` (stereo not drawn) [BIA-A1686], in data set [1], the T.vaginalis_%inb_Rep1 was 14.16% and the T.vaginalis_%inb_Rep2 was 12.87%. For the same compound, the NFF_Activity result in data set [2] was “I (otherwise these were reported as inactive (I))”.

Turning to `C=CC(C)(C)C12CC3C(=O)Nc4ccccc4C(=O)N3C1N(C(C)=O)c1ccccc12` (stereo not drawn) [BIA-A1687], in data set [1], the T.vaginalis_%inb_Rep1 was 18.36% and the T.vaginalis_%inb_Rep2 was determined as 16.20%. Besides, the NFF_Activity result in data set [2] is “I (otherwise these were reported as inactive (I))”.

In data set [1], `CCCCCCCCCCCCCCCc1cc(O)cc(O)c1` [BIA-A1689] came in with a T.vaginalis_%inb_Rep1 of 16.26% and a T.vaginalis_%inb_Rep2 of 11.86%. Also, the NFF_Activity result in data set [2] was “I (otherwise these were reported as inactive (I))”.

Consider `O=[N+]([O-])c1ncc[nH]1` [BIA-A1690], for which, in data set [1], the T.vaginalis_%inb_Rep1 came to 15.19% and the T.vaginalis_%inb_Rep2 was found to be 9.83%. The NFF_Activity result in data set [2] was “I (otherwise these were reported as inactive (I))”.

On to `CC(=O)NCCc1ccc(O)cc1` [BIA-A1731], for which, in data set [1], the T.vaginalis_%inb_Rep1 is 13.35% and the T.vaginalis_%inb_Rep2 is 10.05%. In data set [2], the NFF_Activity entry is “I (otherwise these were reported as inactive (I))”.

In data set [1], `CC(=O)NCCc1c[nH]c2ccccc12` [BIA-A1732] registered a T.vaginalis_%inb_Rep1 of 14.43% and a T.vaginalis_%inb_Rep2 of 33.62%. Further, the NFF_Activity entry in data set [2] was “I (otherwise these were reported as inactive (I))”.

In data set [1], `CC(=O)NCCc1cnc[nH]1` [BIA-A1737] gave a T.vaginalis_%inb_Rep1 of 14.86% and a T.vaginalis_%inb_Rep2 of 38.90%. For the same compound, the NFF_Activity result in data set [2] is “I (otherwise these were reported as inactive (I))”.

Turning to `CC(=O)NCCc1c[nH]c2ccc(O)cc12` [BIA-A1738], in data set [1], the T.vaginalis_%inb_Rep1 is listed as 13.41% and the T.vaginalis_%inb_Rep2 turned out to be 15.18%. The NFF_Activity result in data set [2] was “I (otherwise these were reported as inactive (I))”.

As to `CC1(C)CC[C@]2(C(=O)O)CC[C@]3(C)C(=CC[C@@H]4[C@@]5(C)C[C@@H](O)[C@H](O)[C@@](C)(CO)[C@@H]5CC[C@]43C)[C@@H]2C1` [BIA-A1754], in data set [1], the T.vaginalis_%inb_Rep1 amounted to 13.25% and the T.vaginalis_%inb_Rep2 came out at 12.44%. Moreover, the NFF_Activity entry in data set [2] is “I (otherwise these were reported as inactive (I))”.

In data set [1], `O=C1c2c(O)cc(O)cc2OC1(O)Cc1ccc(O)c(O)c1` (stereo not drawn) [BIA-A1767] gave a T.vaginalis_%inb_Rep1 of 15.13% and a T.vaginalis_%inb_Rep2 of 38.61%. The NFF_Activity entry in data set [2] was “I (otherwise these were reported as inactive (I))”.

In data set [1], `CC(=O)OCC1=C[C@@H]2OC(=O)C3=CO[C@@H](O[C@@H]4O[C@H](CO)[C@@H](O)[C@H](O)[C@H]4O)[C@H]1[C@@H]32` [BIA-A1774] returned a T.vaginalis_%inb_Rep1 of 16.59% and a T.vaginalis_%inb_Rep2 of 15.84%. In addition, the NFF_Activity result in data set [2] was “I (otherwise these were reported as inactive (I))”.

On to `CC(=O)OC[C@]12[C@H](O)C(=O)C(C)=C[C@H]1O[C@@H]1[C@H](O)C[C@@]2(C)[C@]12CO2` [BIA-A1922], for which, in data set [1], the T.vaginalis_%inb_Rep1 is recorded as 7.13% and the T.vaginalis_%inb_Rep2 is reported as 15.54%. Also, in data set [2], the NFF_Activity result was “I (otherwise these were reported as inactive (I))”.

In data set [1], `C=CCNC1=C2CC(C)CC(OC)C(O)C(C)C=C(C)C(OC(N)=O)C(OC)C=CC=C(C)C(=O)NC(=CC1=O)C2=O` (stereo not drawn) [BIA-A1923] showed a T.vaginalis_%inb_Rep1 of 11.27% and a T.vaginalis_%inb_Rep2 of 34.13%. The NFF_Activity entry in data set [2] was “I (otherwise these were reported as inactive (I))”.
